In patent US6737383B1, “Herbicidal oxadiazolidines” (priority 1999, dated 2004):

Columns and labels:
rice = test: Test B flood test rice; format: in vivo, Oryza sativa
Outline: (§1)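 Plants were grown to the 2-leaf stage before treatment with test chemical, then held in a greenhouse for twelve to sixteen days. Injury was visually rated against untreated controls on a 0–10 scale, where 0 is no effect and 10 is complete control.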

soybean = test: Test B pre/postemergence soybean; format: in vivo, Glycine max; conditions: for Soybean plant response rating: scale of 0 to 10 where 0 is no effect and 10 is complete control
Outline: (§2)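 Response is a visual 0-to-10 score relative to untreated plants, where 0 means no effect and 10 means complete control, taken twelve to sixteen days after application. Treatments went onto soil at planting and onto foliage of 1- to 4-leaf plants, using a surfactant-containing non-phytotoxic solvent.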

giant foxtail = test: Test B pre/postemergence giant foxtail; format: in vivo, Setaria faberii; conditions: for Giant foxtail plant response rating: scale of 0 to 10 where 0 is no effect and 10 is complete control
Outline: as §2

wheat = test: Test B pre/postemergence wheat; format: in vivo, Triticum aestivum; conditions: for Wheat plant response rating: scale of 0 to 10 where 0 is no effect and 10 is complete control
Outline: as §2

crabgrass = test: Test B pre/postemergence crabgrass; format: in vivo, Digitaria sanguinalis; conditions: for Crabgrass plant response rating: scale of 0 to 10 where 0 is no effect and 10 is complete control
Outline: as §2

duck salad = test: Test B flood test duck salad; format: in vivo, Heteranthera limosa
Outline: as §1

wild oat = test: Test B pre/postemergence wild oat; format: in vivo, Avena fatua; conditions: for Wild oats plant response rating: scale of 0 to 10 where 0 is no effect and 10 is complete control
Outline: as §2

morningglory = test: Test B pre/postemergence morningglory; format: in vivo, Ipomoea hederacea; conditions: for Morningglory plant response rating: scale of 0 to 10 where 0 is no effect and 10 is complete control
Outline: as §2

purple nutsedge = test: Test B pre/postemergence purple nutsedge; format: in vivo, Cyperus rotundus; conditions: for Nutsedge plant response rating: scale of 0 to 10 where 0 is no effect and 10 is complete control
Outline: as §2

smallflower flatsedge = test: Test B flood test smallflower flatsedge; format: in vivo, Cyperus difformis
Outline: as §1

surinam grass = test: Test B pre/postemergence surinam grass; format: in vivo, Brachiaria decumbens
Outline: as §2

bamyardgrass = test: Test B flood test barnyardgrass; format: in vivo, Echinochloa crus-galli
Outline: as §1

bedstraw = test: Test B pre/postemergence bedstraw; format: in vivo, Galium aparine; conditions: for Plant response rating, Bedstraw: Postemergence
Outline: as §2

cocklebur = test: Test B pre/postemergence cocklebur; format: in vivo, Xanthium strumarium; conditions: for Cocklebur plant response rating: scale of 0 to 10 where 0 is no effect and 10 is complete control
Outline: as §2

velvetleaf = test: Test B pre/postemergence velvetleaf; format: in vivo, Abutilon theophrasti; conditions: for Velvetleaf plant response rating: scale of 0 to 10 where 0 is no effect and 10 is complete control
Outline: as §2

corn = test: Test B pre/postemergence corn; format: in vivo, Zea mays; conditions: for Corn plant response rating: scale of 0 to 10 where 0 is no effect and 10 is complete control
Outline: as §2

blackgrass = test: Test B pre/postemergence blackgrass; format: in vivo, Alopecurus myosuroides
Outline: as §2

[1] = Postemergence (flood test), Rate 125 g/ha, scale 0 to 10, 0 is no effect, 10 is complete control
[2] = Rate 62 g/ha, Postemergence (flood test species), scale of 0 to 10 where 0 is no effect and 10 is complete control
[3] = Rate 500 g/ha, listed under Postemergence (flood test species), scale 0 to 10, 0 no effect, 10 complete control
[4] = Postemergence, Rate 125 g/ha, scale 0 to 10, 0 is no effect, 10 is complete control
[5] = Preemergence, Rate 62 g/ha, scale 0 to 10 (0 no effect, 10 complete control)
[6] = Rate 500 g/ha, Postemergence, scale 0 to 10, 0 no effect, 10 complete control
[7] = Preemergence, Rate 250 g/ha, scale of 0 to 10 where 0 is no effect and 10 is complete control
[8] = Preemergence, Rate 500 g/ha, scale of 0 to 10 where 0 is no effect and 10 is complete control
[9] = Rate 62 g/ha, Postemergence, scale of 0 to 10 where 0 is no effect and 10 is complete control
[10] = Rate 250 g/ha, Postemergence, scale of 0 to 10 where 0 is no effect and 10 is complete control

Compound: CC(C)N(C(=O)n1oc(=O)n(C2CCC2)c1=O)c1ccccc1 [Compound 348]
- Plant response rating, Rice (rice; [1]): 0
- Rice plant response rating (rice; [2]): 0
- Plant response rating, Rice (rice; [3]): 0
- Plant response rating, Soybean (soybean; [4]): 2
- Plant response rating, Soybean (soybean; [5]): 0
- Soybean plant response rating (0 to 10 scale) (soybean; Preemergence, Rate 125 g/ha): 0
- Soybean plant response rating (soybean; Preemergence, Rate 250 g/ha): 0
- Soybean plant response rating (soybean; Preemergence, Rate 500 g/ha): 0
- Soybean plant response rating (soybean; Rate 62 g/ha, Postemergence): 1
- Plant response rating, Soybean (soybean; [6]): 4
- Plant response rating, Giant foxtail (giant foxtail; [4]): 8
- Plant response rating, Giant foxtail (giant foxtail; [5]): 9
- Giant foxtail plant response rating (0 to 10 scale) (giant foxtail; Preemergence, Rate 125 g/ha): 10
- Giant foxtail plant response rating (giant foxtail; Preemergence, Rate 250 g/ha): 10
- Giant foxtail plant response rating (giant foxtail; Preemergence, Rate 500 g/ha): 10
- Giant foxtail plant response rating (giant foxtail; Rate 62 g/ha, Postemergence): 3
- Plant response rating, Giant foxtail (giant foxtail; [6]): 9
- Plant response rating, Wheat (wheat; [4]): 3
- Plant response rating, Wheat (wheat; [5]): 0
- Wheat plant response rating (0 to 10 scale) (wheat; Preemergence, Rate 125 g/ha): 0
- Wheat plant response rating (wheat; Preemergence, Rate 250 g/ha): 0
- Wheat plant response rating (wheat; Preemergence, Rate 500 g/ha): 0
- Wheat plant response rating (wheat; Rate 62 g/ha, Postemergence): 2
- Plant response rating, Wheat (wheat; [6]): 4
- Plant response rating, Crabgrass (crabgrass; [4]): 2
- Plant response rating, Crabgrass (crabgrass; [5]): 7
- Crabgrass plant response rating (0 to 10 scale) (crabgrass; Preemergence, Rate 125 g/ha): 7
- Crabgrass plant response rating (crabgrass; Preemergence, Rate 250 g/ha): 10
- Crabgrass plant response rating (crabgrass; Preemergence, Rate 500 g/ha): 10
- Crabgrass plant response rating (crabgrass; Rate 62 g/ha, Postemergence): 1
- Plant response rating, Crabgrass (crabgrass; [6]): 6
- Plant response rating, Ducksalad (duck salad; [1]): 3
- Ducksalad plant response rating (duck salad; [2]): 0
- Plant response rating, Ducksalad (duck salad; [3]): 4
- Plant response rating, Wild oats (wild oat; [4]): 3
- Plant response rating, Wild oats (wild oat; [5]): 3
- Wild oats plant response rating (0 to 10 scale) (wild oat; Preemergence, Rate 125 g/ha): 4
- Wild oats plant response rating (wild oat; Preemergence, Rate 250 g/ha): 8
- Wild oats plant response rating (wild oat; Preemergence, Rate 500 g/ha): 10
- Wild oats plant response rating (wild oat; Rate 62 g/ha, Postemergence): 2
- Plant response rating, Wild oats (wild oat; [6]): 7
- Plant response rating, Morningglory (morningglory; [4]): 9
- Plant response rating, Morningglory (morningglory; [5]): 0
- Morningglory plant response rating (0 to 10 scale) (morningglory; Preemergence, Rate 125 g/ha): 0
- Morningglory plant response rating (morningglory; Preemergence, Rate 250 g/ha): 0
- Morningglory plant response rating (morningglory; Preemergence, Rate 500 g/ha): 0
- Morningglory plant response rating (morningglory; Rate 62 g/ha, Postemergence): 2
- Plant response rating, Morningglory (morningglory; [6]): 10
- Plant response rating, Nutsedge (purple nutsedge; [4]): 0
- Plant response rating, Nutsedge (purple nutsedge; [5]): 0
- Nutsedge plant response rating (0 to 10 scale) (purple nutsedge; Preemergence, Rate 125 g/ha): 0
- Nutsedge plant response rating (purple nutsedge; Preemergence, Rate 250 g/ha): 0
- Nutsedge plant response rating (purple nutsedge; Preemergence, Rate 500 g/ha): 0
- Nutsedge plant response rating (purple nutsedge; Rate 62 g/ha, Postemergence): 0
- Plant response rating, Nutsedge (purple nutsedge; [6]): 6
- Plant response rating, S. Flatsedge (smallflower flatsedge; [1]): 6
- S. Flatsedge plant response rating (smallflower flatsedge; [2]): 4
- Plant response rating, S. Flatsedge (smallflower flatsedge; [3]): 7
- Plant response rating, B. signalgrass (surinam grass; [4]): 1
- B. signalgrass plant response rating (0 to 10 scale, 0 is no effect, 10 is complete control) (surinam grass; Preemergence, Rate 125 g/ha): 3
- B. signalgrass plant response rating (surinam grass; [7]): 5
- B. signalgrass plant response rating (surinam grass; [8]): 7
- B. signalgrass plant response rating (surinam grass; [9]): 0
- Plant response rating, B. signalgrass (surinam grass; [10]): 4
- Plant response rating, B. signalgrass (surinam grass; [6]): 7
- Plant response rating, Barnyardgrass (bamyardgrass; [1]): 2
- Barnyardgrass plant response rating (bamyardgrass; [2]): 2
- Plant response rating, Barnyardgrass (bamyardgrass; Rate 250 g/ha, Postemergence (flood test species), scale of 0 to 10 where 0 is no effect and 10 is complete control): 3
- Plant response rating, Barnyardgrass (bamyardgrass; [3]): 7
- Plant response rating, Bedstraw (bedstraw; Rate 125 g/ha, scale 0 to 10, 0 is no effect, 10 is complete control): 2
- Bedstraw plant response rating (bedstraw; [8]): 9
- Plant response rating, Bedstraw (bedstraw; Rate 250 g/ha, scale of 0 to 10 where 0 is no effect and 10 is complete control): 4
- Plant response rating, Bedstraw (bedstraw; Rate 500 g/ha, scale 0 to 10, 0 no effect, 10 complete control): 7
- Plant response rating, Cocklebur (cocklebur; [4]): 0
- Plant response rating, Cocklebur (cocklebur; [5]): 0
- Cocklebur plant response rating (0 to 10 scale) (cocklebur; Preemergence, Rate 125 g/ha): 0
- Cocklebur plant response rating (cocklebur; Preemergence, Rate 250 g/ha): 0
- Cocklebur plant response rating (cocklebur; Preemergence, Rate 500 g/ha): 0
- Cocklebur plant response rating (cocklebur; Rate 62 g/ha, Postemergence): 0
- Plant response rating, Cocklebur (cocklebur; [6]): 2
- Plant response rating, Velvetleaf (velvetleaf; [4]): 2
- Plant response rating, Velvetleaf (velvetleaf; [5]): 3
- Velvetleaf plant response rating (0 to 10 scale) (velvetleaf; Preemergence, Rate 125 g/ha): 3
- Velvetleaf plant response rating (velvetleaf; Preemergence, Rate 250 g/ha): 7
- Velvetleaf plant response rating (velvetleaf; Preemergence, Rate 500 g/ha): 7
- Velvetleaf plant response rating (velvetleaf; Rate 62 g/ha, Postemergence): 2
- Plant response rating, Velvetleaf (velvetleaf; [6]): 6
- Plant response rating, Corn (corn; [4]): 0
- Plant response rating, Corn (corn; [5]): 0
- Corn plant response rating (0 to 10 scale) (corn; Preemergence, Rate 125 g/ha): 2
- Corn plant response rating (corn; Preemergence, Rate 250 g/ha): 2
- Corn plant response rating (corn; Preemergence, Rate 500 g/ha): 9
- Corn plant response rating (corn; Rate 62 g/ha, Postemergence): 0
- Plant response rating, Corn (corn; [6]): 3
- Plant response rating, Blackgrass (blackgrass; [4]): 3
- Plant response rating, Blackgrass (blackgrass; [5]): 4
- Blackgrass plant response rating (0 to 10 scale) (blackgrass; Preemergence, Rate 125 g/ha): 6
- Blackgrass plant response rating (blackgrass; [7]): 9
- Blackgrass plant response rating (blackgrass; [8]): 9
- Blackgrass plant response rating (blackgrass; [9]): 2
- Plant response rating, Blackgrass (blackgrass; [10]): 6
- Plant response rating, Blackgrass (blackgrass; [6]): 7
